Results on 9 compounds are retold here after article PMC9927415, “Tyrosine Kinase Inhibitors Display Potent Activity against Cryptosporidium parvum” (Microbiology Spectrum, 2022).

Common to all, as to test: KINOMEscan competitive binding
One test concerns the target T1, RPS6KA6(Kin.Dom.1) (Homo sapiens, UniProt Q9UK32).
T1 construct: RPS6KA6(Kin.Dom.1); purchased DiscoverX (KINOMEscan)
The following applies: n=1, read-out: Percent inhibition, RPS6KA6(Kin.Dom.1).

The target in the next test is T2, JAK kinase domains (Homo sapiens, UniProt O60674).
T2 construct: purchased DiscoverX (KINOMEscan)
T2 sequence (O60674 840-1132): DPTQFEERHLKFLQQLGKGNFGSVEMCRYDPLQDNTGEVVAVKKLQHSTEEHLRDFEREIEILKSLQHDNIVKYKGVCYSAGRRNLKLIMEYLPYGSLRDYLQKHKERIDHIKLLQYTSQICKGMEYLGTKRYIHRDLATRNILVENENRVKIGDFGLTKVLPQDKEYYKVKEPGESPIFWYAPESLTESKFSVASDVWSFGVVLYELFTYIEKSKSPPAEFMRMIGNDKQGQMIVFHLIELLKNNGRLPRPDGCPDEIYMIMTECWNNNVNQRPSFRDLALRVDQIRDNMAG
The following applies: 10 µM, n=1; kinase JAK2(Kin.Dom.2); read-out: Percent inhibition JAK2(Kin.Dom.2). From the text: The kinases were expressed as fusions to T7 bacteriophage. This is a sensitive, competitive binding assay where test compounds were used to displace immobilized ATP-site binding probe ligands from kinases of interest. The amount of kinase that remained bound to the immobilized probe ligands on the solid support was quantified. Percentage inhibition data were was plotted on kinome trees using the web-based tool KinMap (http://www.kinhub.org/kinmap) ([60]).

The next test has as its target T3, RPS6KA5(Kin.Dom.1) (Homo sapiens, UniProt O75582).
T3 construct: RPS6KA5(Kin.Dom.1); purchased DiscoverX (KINOMEscan)
Particulars: n=1, read-out: Percent inhibition, RPS6KA5(Kin.Dom.1).

The target of another test is T4, PHKG1 (Homo sapiens, UniProt Q16816).
T4 construct: purchased DiscoverX (KINOMEscan)
T4 sequence (Q16816 whole entry): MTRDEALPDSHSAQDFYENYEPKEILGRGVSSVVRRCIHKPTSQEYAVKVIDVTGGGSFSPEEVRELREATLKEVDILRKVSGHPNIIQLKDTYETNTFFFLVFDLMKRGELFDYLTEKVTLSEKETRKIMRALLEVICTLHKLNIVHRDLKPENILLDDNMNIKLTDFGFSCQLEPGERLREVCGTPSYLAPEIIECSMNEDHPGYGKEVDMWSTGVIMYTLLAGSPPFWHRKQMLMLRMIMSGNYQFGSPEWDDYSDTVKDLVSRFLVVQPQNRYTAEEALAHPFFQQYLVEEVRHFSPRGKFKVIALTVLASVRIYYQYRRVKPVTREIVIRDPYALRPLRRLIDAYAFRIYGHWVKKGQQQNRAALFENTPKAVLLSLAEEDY
Particulars: n=1, read-out: Percent inhibition, PHKG1.

Another test addresses T5, PIM2 (Homo sapiens, UniProt Q9P1W9).
T5 construct: purchased DiscoverX (KINOMEscan)
Particulars: n=1, read-out: Percent inhibition, PIM2.

The target in a further test is T6, RPS6KA4(Kin.Dom.1) (Homo sapiens, UniProt O75676).
T6 construct: RPS6KA4(Kin.Dom.1); purchased DiscoverX (KINOMEscan)
T6 sequence (O75676 1-371 limits assumed): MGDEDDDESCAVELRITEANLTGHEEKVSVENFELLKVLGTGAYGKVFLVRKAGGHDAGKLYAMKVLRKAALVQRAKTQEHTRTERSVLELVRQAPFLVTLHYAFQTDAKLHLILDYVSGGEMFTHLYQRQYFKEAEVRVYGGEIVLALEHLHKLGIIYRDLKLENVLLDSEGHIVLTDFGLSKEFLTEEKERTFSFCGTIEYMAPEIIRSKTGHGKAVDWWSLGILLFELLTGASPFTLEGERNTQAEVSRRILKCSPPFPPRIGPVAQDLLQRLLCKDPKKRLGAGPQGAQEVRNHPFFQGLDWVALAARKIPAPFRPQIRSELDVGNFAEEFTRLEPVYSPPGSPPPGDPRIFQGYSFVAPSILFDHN
The following applies: n=1, read-out: Percent inhibition, RPS6KA4(Kin.Dom.1).

A further test deals with T7, ULK3(mouse) (Mus musculus, UniProt Q3U3Q1).
T7 construct: purchased DiscoverX (KINOMEscan)
T7 sequence (Q3U3Q1 1-472): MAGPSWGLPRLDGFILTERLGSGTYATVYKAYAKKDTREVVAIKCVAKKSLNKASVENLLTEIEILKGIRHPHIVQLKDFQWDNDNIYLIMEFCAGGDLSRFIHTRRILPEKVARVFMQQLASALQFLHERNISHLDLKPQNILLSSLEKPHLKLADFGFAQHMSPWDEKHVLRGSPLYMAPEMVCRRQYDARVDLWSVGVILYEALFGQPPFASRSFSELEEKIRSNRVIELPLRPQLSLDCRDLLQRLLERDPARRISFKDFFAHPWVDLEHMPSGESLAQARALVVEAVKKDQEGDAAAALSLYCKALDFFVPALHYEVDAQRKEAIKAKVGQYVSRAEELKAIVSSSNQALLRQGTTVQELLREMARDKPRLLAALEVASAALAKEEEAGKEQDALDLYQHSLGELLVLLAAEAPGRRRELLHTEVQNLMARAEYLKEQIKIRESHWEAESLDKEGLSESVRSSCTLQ
Particulars: n=1, read-out: Percent inhibition, ULK3(mouse).

A further test deals with T8, TESK1 (Homo sapiens, UniProt Q15569).
T8 construct: purchased DiscoverX (KINOMEscan)
T8 sequence (Q15569 whole entry): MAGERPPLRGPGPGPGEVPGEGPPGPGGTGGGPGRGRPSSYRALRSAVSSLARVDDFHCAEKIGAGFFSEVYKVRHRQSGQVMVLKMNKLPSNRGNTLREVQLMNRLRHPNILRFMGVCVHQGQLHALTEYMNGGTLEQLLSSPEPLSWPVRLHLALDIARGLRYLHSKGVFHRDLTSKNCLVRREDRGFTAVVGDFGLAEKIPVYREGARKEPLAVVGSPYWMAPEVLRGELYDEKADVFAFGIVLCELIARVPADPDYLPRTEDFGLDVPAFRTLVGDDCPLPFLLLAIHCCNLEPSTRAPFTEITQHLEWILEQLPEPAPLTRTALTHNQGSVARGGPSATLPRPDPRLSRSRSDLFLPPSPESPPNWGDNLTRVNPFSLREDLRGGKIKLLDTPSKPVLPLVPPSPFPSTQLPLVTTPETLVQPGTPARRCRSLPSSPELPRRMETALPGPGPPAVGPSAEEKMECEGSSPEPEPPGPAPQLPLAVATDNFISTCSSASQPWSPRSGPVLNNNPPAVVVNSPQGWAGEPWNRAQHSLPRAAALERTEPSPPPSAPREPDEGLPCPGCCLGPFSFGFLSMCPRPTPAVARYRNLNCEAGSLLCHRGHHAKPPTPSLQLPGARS
The following applies: n=1, read-out: Percent inhibition, TESK1.

The target in the next test is T9, PAK6 (Homo sapiens, UniProt Q9NQU5).
T9 construct: purchased DiscoverX (KINOMEscan)
T9 sequence (Q9NQU5 whole entry): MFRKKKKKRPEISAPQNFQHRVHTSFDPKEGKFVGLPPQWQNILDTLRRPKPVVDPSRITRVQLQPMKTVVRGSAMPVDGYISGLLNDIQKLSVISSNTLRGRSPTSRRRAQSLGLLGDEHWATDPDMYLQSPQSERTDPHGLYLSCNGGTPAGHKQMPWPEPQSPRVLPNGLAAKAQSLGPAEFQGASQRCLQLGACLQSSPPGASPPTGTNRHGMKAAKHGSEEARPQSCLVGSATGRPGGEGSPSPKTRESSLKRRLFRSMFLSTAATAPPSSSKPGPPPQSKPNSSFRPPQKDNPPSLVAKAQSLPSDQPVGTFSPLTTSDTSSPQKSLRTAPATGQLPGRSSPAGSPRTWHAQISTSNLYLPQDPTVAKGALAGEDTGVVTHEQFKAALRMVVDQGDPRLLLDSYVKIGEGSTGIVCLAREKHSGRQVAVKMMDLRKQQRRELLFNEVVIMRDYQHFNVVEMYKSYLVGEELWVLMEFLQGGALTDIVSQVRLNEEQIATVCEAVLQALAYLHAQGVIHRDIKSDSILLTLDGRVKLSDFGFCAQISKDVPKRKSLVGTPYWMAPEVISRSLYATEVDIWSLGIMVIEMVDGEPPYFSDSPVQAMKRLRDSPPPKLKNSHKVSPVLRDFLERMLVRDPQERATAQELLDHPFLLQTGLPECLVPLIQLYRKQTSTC
Particulars: n=1, read-out: Percent inhibition, PAK6.

The target in a further test is T10, PRKX (Homo sapiens, UniProt P51817).
T10 construct: purchased DiscoverX (KINOMEscan)
T10 sequence (P51817 1-358): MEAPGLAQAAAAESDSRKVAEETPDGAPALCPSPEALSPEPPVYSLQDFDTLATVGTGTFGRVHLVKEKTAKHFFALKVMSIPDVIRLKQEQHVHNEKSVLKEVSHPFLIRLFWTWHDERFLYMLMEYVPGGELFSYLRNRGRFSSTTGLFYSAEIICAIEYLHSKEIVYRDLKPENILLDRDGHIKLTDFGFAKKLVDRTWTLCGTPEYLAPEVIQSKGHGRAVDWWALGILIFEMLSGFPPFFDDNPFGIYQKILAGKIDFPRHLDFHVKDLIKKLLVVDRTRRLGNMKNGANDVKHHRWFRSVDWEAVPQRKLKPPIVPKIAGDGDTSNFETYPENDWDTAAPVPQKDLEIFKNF
The following applies: n=1, read-out: Percent inhibition, PRKX.

The target of the next test is T11, STK33 (Homo sapiens, UniProt Q9BYT3).
T11 construct: purchased DiscoverX (KINOMEscan)
T11 sequence (Q9BYT3 whole entry): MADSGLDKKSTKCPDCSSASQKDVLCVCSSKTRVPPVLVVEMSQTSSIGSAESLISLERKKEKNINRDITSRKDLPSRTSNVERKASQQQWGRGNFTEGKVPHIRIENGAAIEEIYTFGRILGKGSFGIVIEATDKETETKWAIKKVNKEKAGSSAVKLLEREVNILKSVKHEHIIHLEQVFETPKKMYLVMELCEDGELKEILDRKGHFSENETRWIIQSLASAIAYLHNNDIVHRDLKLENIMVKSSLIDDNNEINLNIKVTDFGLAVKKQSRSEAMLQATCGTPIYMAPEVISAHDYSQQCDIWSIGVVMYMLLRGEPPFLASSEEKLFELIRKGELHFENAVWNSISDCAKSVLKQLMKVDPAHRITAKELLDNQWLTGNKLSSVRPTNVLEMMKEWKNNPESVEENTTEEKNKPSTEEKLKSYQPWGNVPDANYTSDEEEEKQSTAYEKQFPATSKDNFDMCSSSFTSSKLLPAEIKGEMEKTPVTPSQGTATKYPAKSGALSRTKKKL
The following applies: n=1, read-out: Percent inhibition, STK33.

The target of the next test is T12, TGFBR1 (Homo sapiens, UniProt P36897).
T12 construct: purchased DiscoverX (KINOMEscan)
T12 sequence (P36897 34-503): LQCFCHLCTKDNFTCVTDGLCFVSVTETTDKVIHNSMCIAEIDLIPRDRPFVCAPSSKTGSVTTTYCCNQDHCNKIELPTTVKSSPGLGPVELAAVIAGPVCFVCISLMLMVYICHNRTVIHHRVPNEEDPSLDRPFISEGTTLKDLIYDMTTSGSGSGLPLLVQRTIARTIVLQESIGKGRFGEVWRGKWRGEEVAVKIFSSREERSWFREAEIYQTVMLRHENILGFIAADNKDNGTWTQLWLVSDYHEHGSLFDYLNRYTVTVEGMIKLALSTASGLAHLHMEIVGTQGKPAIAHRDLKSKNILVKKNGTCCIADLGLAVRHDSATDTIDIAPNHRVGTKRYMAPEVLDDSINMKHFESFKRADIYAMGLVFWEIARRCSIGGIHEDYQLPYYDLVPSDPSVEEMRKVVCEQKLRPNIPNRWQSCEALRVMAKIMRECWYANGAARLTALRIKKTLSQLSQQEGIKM
Particulars: n=1, read-out: Percent inhibition, TGFBR1.

T5 sequence (Q9P1W9 whole entry): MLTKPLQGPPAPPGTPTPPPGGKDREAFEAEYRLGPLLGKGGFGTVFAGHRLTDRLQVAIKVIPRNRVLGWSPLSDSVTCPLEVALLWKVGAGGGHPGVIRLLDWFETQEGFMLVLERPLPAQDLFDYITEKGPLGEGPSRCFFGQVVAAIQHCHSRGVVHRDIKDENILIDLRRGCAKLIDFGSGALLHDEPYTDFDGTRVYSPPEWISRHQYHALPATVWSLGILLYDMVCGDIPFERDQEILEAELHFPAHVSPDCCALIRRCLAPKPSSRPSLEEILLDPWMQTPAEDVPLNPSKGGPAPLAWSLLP
T3 sequence (O75582 1-387 limits assumed): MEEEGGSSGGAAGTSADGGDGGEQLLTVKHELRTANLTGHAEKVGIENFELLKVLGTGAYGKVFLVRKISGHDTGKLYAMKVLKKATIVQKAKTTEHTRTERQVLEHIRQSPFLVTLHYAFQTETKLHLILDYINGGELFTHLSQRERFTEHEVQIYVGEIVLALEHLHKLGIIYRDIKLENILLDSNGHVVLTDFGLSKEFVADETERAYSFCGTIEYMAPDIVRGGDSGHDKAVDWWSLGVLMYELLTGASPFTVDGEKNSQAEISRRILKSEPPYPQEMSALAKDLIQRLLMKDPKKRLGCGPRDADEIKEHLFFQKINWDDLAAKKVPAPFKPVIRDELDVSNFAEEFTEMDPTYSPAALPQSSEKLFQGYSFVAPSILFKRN
T1 sequence (Q9UK32 1-400 limits assumed): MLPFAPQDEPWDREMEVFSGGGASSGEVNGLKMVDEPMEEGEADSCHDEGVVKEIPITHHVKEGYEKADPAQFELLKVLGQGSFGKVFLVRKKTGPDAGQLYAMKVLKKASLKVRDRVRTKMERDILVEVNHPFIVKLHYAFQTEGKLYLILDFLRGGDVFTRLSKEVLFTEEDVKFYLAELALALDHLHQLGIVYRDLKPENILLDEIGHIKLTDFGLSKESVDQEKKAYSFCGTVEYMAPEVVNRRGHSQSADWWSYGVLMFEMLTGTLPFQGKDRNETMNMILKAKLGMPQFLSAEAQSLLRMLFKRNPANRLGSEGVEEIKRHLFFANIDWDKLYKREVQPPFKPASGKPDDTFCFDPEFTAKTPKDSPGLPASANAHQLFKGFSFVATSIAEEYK

On to `CN1CCN(c2ccc(Nc3nccc(-c4cnn5ncccc45)n3)cc2C#N)CC1` [Compound 1], for which the inhibition at 10 µM at RPS6KA6(Kin.Dom.1) is 0%; at JAK kinase domains it was 86.8%; at RPS6KA5(Kin.Dom.1) it was 65.7%; on PHKG1, 88.3%; at PIM2, 99.7%; at RPS6KA4(Kin.Dom.1) it was 0%. The inhibition at 10 µM at ULK3(mouse) turned out to be 97.1%; at TESK1, 0%; on PAK6, 92.5%; at PRKX, 0%; at STK33 it was 98.1%; on TGFBR1 it was 78.8%.
`COc1ccc(Nc2nccc(-c3cnn4ncccc34)n2)cc1` [Compound 2]: the inhibition at 10 µM at RPS6KA6(Kin.Dom.1) was determined as 0%; at JAK kinase domains it was 89.7%; on RPS6KA5(Kin.Dom.1), 0%; on PHKG1, 0%; at PIM2, 81.1%; on RPS6KA4(Kin.Dom.1), 0%. For the same compound, the inhibition at 10 µM turned out to be 92.5% on ULK3(mouse); 0% on TESK1; 82% at PAK6; 0% at PRKX; 68.9% at STK33; 0% at TGFBR1.
Consider `Cc1ccc(O)cc1Nc1ccnc(Nc2cccc(C(N)=O)c2)n1` [Compound 3], for which the inhibition at 10 µM on RPS6KA6(Kin.Dom.1) worked out at 0%; on JAK kinase domains, 80.6%; at RPS6KA5(Kin.Dom.1), 0%; on PHKG1 it was 0%; at PIM2, 0%; on RPS6KA4(Kin.Dom.1), 0%. In addition, the inhibition at 10 µM at ULK3(mouse) turned out to be 91.5%; on TESK1 it was 0%; on PAK6 it was 0%; on PRKX, 0%; on STK33, 89.1%; at TGFBR1, 100%.
Consider `Cc1ccc(O)cc1N(C)c1ccnc(Nc2cccc(S(N)(=O)=O)c2)n1` [Compound 4], for which the inhibition at 10 µM stood at 0% on RPS6KA6(Kin.Dom.1); 90.7% at JAK kinase domains; 0% at RPS6KA5(Kin.Dom.1); 0% on PHKG1; 0% at PIM2; 0% on RPS6KA4(Kin.Dom.1). In addition, the inhibition at 10 µM on ULK3(mouse) is 98.8%; on TESK1, 79.9%; on PAK6, 94.3%; on PRKX, 0%; on STK33, 85.7%; on TGFBR1, 100%.
Regarding `Fc1cccc(COc2ccc(Nc3ncnc4c3CN(CCN3CCOCC3)CC4)cc2Cl)c1` [Compound 6], the inhibition at 10 µM on RPS6KA6(Kin.Dom.1), at JAK kinase domains, on RPS6KA5(Kin.Dom.1), on PHKG1, on PIM2 and on RPS6KA4(Kin.Dom.1) was 0% each time. Further, the inhibition at 10 µM on ULK3(mouse), on TESK1, on PAK6, on PRKX, on STK33 and at TGFBR1 was 0% in each case.
On to `COc1cc(Nc2nccc(-c3sc(N)nc3-c3cccc(NC(=O)c4c(F)cccc4F)c3)n2)cc(OC)c1OC` [Compound 7], for which the inhibition at 10 µM at RPS6KA6(Kin.Dom.1) was 83.2%; on JAK kinase domains, 0%; on RPS6KA5(Kin.Dom.1), 97.4%; at PHKG1 it was 0%; on PIM2 it was 0%; at RPS6KA4(Kin.Dom.1) it was 98.9%. The inhibition at 10 µM on ULK3(mouse) is 100%; at TESK1, 100%; on PAK6, 65%; on PRKX it was 0%; at STK33 it was 0%; on TGFBR1, 72.9%.
As for `C[C@@H](Oc1cc(-c2cnc3ccccn23)sc1C(N)=O)c1ccccc1Cl` [Compound 8], the inhibition at 10 µM at RPS6KA6(Kin.Dom.1) is 0%; on JAK kinase domains it was 70.2%; on RPS6KA5(Kin.Dom.1), 0%; on PHKG1 it was 0%; on PIM2, 0%; on RPS6KA4(Kin.Dom.1), 0%. Also, the inhibition at 10 µM at ULK3(mouse), at TESK1, on PAK6, at PRKX, on STK33 and at TGFBR1 was 0% each time.
Consider `c1ccc(COc2cccc(-c3ccnc4[nH]ccc34)c2)cc1` [Compound 9], for which the inhibition at 10 µM at RPS6KA6(Kin.Dom.1), on JAK kinase domains, on RPS6KA5(Kin.Dom.1), at PHKG1, on PIM2 and on RPS6KA4(Kin.Dom.1) was 0% throughout. Besides, the inhibition at 10 µM on ULK3(mouse), on TESK1, on PAK6, on PRKX, on STK33 and at TGFBR1 was 0% in each case.
Turning to `Clc1ccc(Nc2ncc(-c3ccccc3)s2)cc1` [Compound 10], the inhibition at 10 µM at RPS6KA6(Kin.Dom.1), on JAK kinase domains, on RPS6KA5(Kin.Dom.1), on PHKG1, at PIM2 and on RPS6KA4(Kin.Dom.1) was 0% throughout. The inhibition at 10 µM on ULK3(mouse), at TESK1, on PAK6, at PRKX, at STK33 and on TGFBR1 was 0% in each case.

As usually defined, the inhibition is the relative decrease from the control value, in per cent.
